Data as given in patent US20060121047A1, “Use of hmgb polypetides for increasing immune responses” (priority 2002, published 2006).

B1: wild-type HMGB1: Recombinant full length human HMGB1, SEQ ID NO: 18 (protein, listed as Homo sapiens)
chain: MGKGDPKKPTGKMSSYAFFVQTCREEHKKKHPDASVNFSEFSKKCSERWKTMSAKEKGKFEDMAKADKARYEREMKTYIPPKGETKKKFKDPNAPKRLPSAFFLFCSEYRPKIKGEHPGLSIGDVAKKLGEMWNNTAADDKQPYEKKAAKLKEKYEKDIAAYRAKGKPDAAKKGVVKAEKSKKKKEEEEDEEDEEDEEEEEDEEDEEDEEEDDDDE
B2: carboxyl-truncated HMGB1: Human HMGB1 mutant in which the carboxy terminus was deleted, SEQ ID NO: 19 (protein, listed as Homo sapiens)
chain: MGKGDPKKPTGKMSSYAFFVQTCREEHKKKHPDASVNFSEFSKKCSERWKTMSAKEKGKFEDMAKADKARYEREMKTYIPPKGETKKKFKDPNAPKRLPSAFFLFCSEYRPKIKGEHPGLSIGDVAKKLGEMWNNTAADDKQPYEKKAAKLKEKYEKDIAAYRAKGKPDAAKKGVVKAEKSK
B3: A box: Human HMGB1 mutant containing only the A box (amino terminus + A box), SEQ ID NO: 21 (protein, listed as Homo sapiens)
chain: MGKGDPKKPTGKMSSYAFFVQTCREEHKKKHPDASVNFSEFSKKCSERWKTMSAKEKGKFEDMAKADKARYEREMKTYIPPKGET

Tests used:
[1] = tested on: Murine macrophage-like RAW 264.7 cells; assay: TNF release from RAW 264.7 cells (L929 cytotoxicity bioassay); assay type: cell-based; conditions: for TNF release by synthetic peptide fragment of the B box: 10 μg/ml synthetic peptide, 10 hours (FIG. 3); for TNF release: 1 μg/ml protein, 8 hours, RAW 264.7 cells (FIG. 1)
Protocol: Murine macrophage-like RAW 264.7 cells (American Type Culture Collection, Rockville, Md.) were cultured in RPMI 1640 medium (Life Technologies, Grand Island N.Y.) supplemented with 10% fetal bovine serum (Gemini, Catabasas, Calif.), penicillin and streptomycin (Life Technologies) and were used at 90% confluence in serum-free Opti-MEM I medium (Life Technologies, Grand Island, N.Y.). […] Polymyxin B was not used in experiments of synthetic peptide studies.
TNF release was measured by a standard murine fibroblast L929 (ATCC, American Type Culture Collection, Rockville, Md.) cytotoxicity bioassay (Bianchi et al., Journal of Experimental Medicine 183:927-936, 1996) with the minimum detectable concentration of 30 pg/ml. Recombinant mouse TNF was obtained from R&D system Inc., (Minneapolis, MN). Murine fibroblast L929 cells (ATCC) were cultured in DMEM (Life Technologies, Grand Island, N.Y.) supplemented with 10% fetal bovine serum (Gemini, Catabasas, Calif.), penicillin (50 units/ml) and streptomycin (50 μg/ml) (Life Technologies) in a humidified incubator with 5% CO2.
The effect of the mutants on TNF release from Murine macrophage-like RAW 264.7 cells (ATCC) was carried out as follows. RAW 264.7 cells were cultured in RPMI 1640 medium (Life Technologies, Grand Island N.Y.) supplemented with 10% fetal bovine serum (Gemini, Catabasas, Calif.), penicillin and streptomycin (Life Technologies). Polymyxin (Sigma, St. Louis, Mo.) was added at 100 units/ml to suppress the activity of any contaminating LPS. Cells were incubated with 1 μg/ml of full length (wild-type) HMGB1 and each HMGB1 mutant protein in Opti-MEM I medium for 8 hours, and conditioned supernatants (containing TNF which had been released from the cells) were collected and TNF released from the cells was measured by a standard murine fibroblast L929 (ATCC) cytotoxicity bioassay (Bianchi et al., supra) with the minimum detectable concentration of 30 pg/ml. Recombinant mouse TNF was obtained from R & D Systems Inc., (Minneapolis, Minn.) and used as control in these experiments. Data in FIG. 1 are all presented as mean+SEM unless otherwise indicated. (=6−10).
To further examine the effect of HMGB1 B box on cytokine production, varying amounts of HMGB1 B box were evaluated for the effects on TNF, IL-1B, and IL-6 production in murine macrophage-like RAW 264.7 cells. Conditioned media were harvested and measured for TNF, IL-1β and IL-6 levels. TNF levels were measured as described herein, and IL-1β and IL-6 levels were measured using the mouse IL-1β and IL-6 enzyme-linked immunosorbent assay (ELISA) kits (R&D System Inc., Minneapolis, 1) and N>5 for all experiments.
The kinetics of B box-induced TNF release was also examined. TNF release and TNF mRNA expression was measured in RAW 264.7 cells induced by B box polypeptide or GST tag polypeptide only used as a control (vector) (10 μg/ml) for 0 to 48 hours. Supernatants were analyzed for TNF protein levels by an L929 cytotoxicity assay (N=3-5) as described herein. For mRNA measurement, cells were plated in 100 mm plate and treated in Opti-MEM I medium containing B box polypeptide or the vector alone for 0, 4, 8, or 24 hours, as indicated in FIG. 2D. The vector only sample was assayed at the 4 hour time point. Cells were scraped off the plate and total RNA was isolated by RNAzol B method in accordance with the manufacturer's instructions (Tel-Test “B”, Inc., Friendswood, Tex.). TNF (287 bp) was measured by RNase protection assay (Ambion, Austin, Tex.). Equal loading and the integrity of RNA was verified by ethidium bromide staining of the RNA sample on agarose-formaldehyde gel. […] TNF mRNA expression was maximal at 4 hours and decreased at 8 and 24 hours. […] A similar study was carried out measuring TNF protein released from RAW 264.7 cells 0, 4, 8, 24, 32 or 48 hours after administration of B box or vector only (GST tag), using the L929 cytotoxicity assay described herein. […] Data are representative of three separate experiments. […]

[2] = tested on: RAW 264.7 cells; conditions: polymyxin B alone, 100-1,000 units/ml; cited from earlier work

| Molecule | TNF release by synthetic peptide fragment of the B box [1] | TNF release [1] | other results |
| --- | --- | --- | --- |
| 45-64: Synthetic peptide, amino acids 45-64 of the HMGB1 B box (SEQ ID NO: 20) (WNNTAADDKQPYEKKAAKLK; listed as Homo sapiens) | did not induce TNF release | – | – |
| 16-25: Synthetic peptide, amino acids 16-25 of the HMGB1 B box (SEQ ID NO: 20) (LFCSEYRPKI; listed as Homo sapiens) | did not induce TNF release | – | – |
| fkdpnapkrlpsafflfcse (FKDPNAPKRLPSAFFLFCSE; listed as Homo sapiens) [1-20-mer] | TNF-stimulating activity was retained | – | TNF stimulating activity relative to full length synthetic B box (1-74-mer) or full length HMGB1 ([1]; peptide 10 μg/ml, 10 hours): less potent |
| 60-74: Synthetic peptide, amino acids 60-74 of the HMGB1 B box (SEQ ID NO: 20) (AAKLKEKYEKDIAAY; listed as Homo sapiens) | did not induce TNF release | – | – |
| Polymyxin B | – | – | cell viability [2]: did not influence cell viability |
| 30-49: Synthetic peptide, amino acids 30-49 of the HMGB1 B box (SEQ ID NO: 20) (PGLSIGDVAKKLGEMWNNTA; listed as Homo sapiens) | did not induce TNF release | – | – |
| B1 | – | significantly stimulated TNF release | – |
| B2 | – | significantly stimulated TNF release | – |
| B3 | – | only weakly activated TNF release | – |
